According to patent US20220125745A1, “PHARMACEUTICAL COMPOSITION FOR CO-ADMINISTRATION OF ACIDOSIS-INDUCING DRUG” (HAIM BIO CO., LTD., priority 2018, published 2022):
Read-outs that look alike come from different tables or passages of the source.

Experiments:
[1] = system: A549 cells (cancer cells); experiment: Lactate assay (luminescence) in A549 cells, candidate substance alone or combined with a substance that causes lactic acidosis; assay type: cell-based; settings: A549; for activity at 50 µM: Homo sapiens
Experimental: (§1) To identify the effects of administration of the candidate substances for lactic acidosis treatment as described in Example 1 in combination with the above-mentioned substances that cause lactic acidosis, A549 cells (cancer cells) or L132 cells (normal cells) were respectively seeded in 96- or 24-well plates at a concentration of 1×10^4 or 3×10^5 cells/well, and incubation was performed overnight. Administration of the candidate substance for acidosis treatment in combination with the substance that causes lactic acidosis was performed and incubation was further performed for 24 hours. For the candidate substances for acidosis treatment, each substance was administered at a uniform concentration of 50 μM; and for the substances that cause lactic acidosis, metformin was administered at 1 to 100 μM, isoniazid was administered at 1 to 500 μM, berberine was administered at 10 μM, linezolid was administered at 200 μM, and phenformin was administered at 100 μM. All substances were dissolved in dimethyl sulfoxide (DMSO, Sigma-Aldrich Corporation, St. Louis, Mo., USA), and the substances to be administered in combination were administered simultaneously. Subsequently, 50 μl of the cell culture solution obtained by being diluted with Dulbecco's Phosphate-Buffered Saline (DPBS; Wellgene, Korea), and 50 μl of the lactate assay reaction buffer (Promega, Madison, Wis., USA) were mixed and the mixture was added in a 96-well plate. Reaction was allowed to proceed at room temperature for 1 hour. Then, luminescence was measured with a spectrophotometer (Synergy HTX Multi-Reader; BioTek, Winooski, Vt., USA). At the same time, the number of cells in each sample was measured with a cell viability analysis kit (Cell Counting Kit-8; Dojindo Molecular Technologies, Inc., Kumamoto, Japan), and calculation was performed so that the lactic acid measurement value in each sample could be compared with that in the negative control for the same number of cells.

[2] = system: L132 cells (normal cells); experiment: Lactate assay (luminescence) in L132 cells, candidate substance alone or combined with a substance that causes lactic acidosis; assay type: cell-based; settings: L132; for activity at 50 µM: Homo sapiens
Experimental: as §1

[3] = candidate 50 μM + berberine 10 μM, relative to berberine alone (PC)
[4] = candidate 50 μM + linezolid 200 μM, relative to linezolid alone (PC)
[5] = candidate 50 μM + phenformin 100 μM, relative to phenformin alone (PC)
[6] = candidate 50 μM alone, no berberine, 24 h, vs negative control, mean ± SEM, read-out: Luminescence intensity (%), Berberine (10 μM) −
[7] = candidate 50 μM alone, no linezolid, 24 h, vs negative control, mean ± SEM, read-out: Luminescence intensity (%), Linezolid (200 μM) −
[8] = candidate 50 μM alone, no phenformin, 24 h, vs negative control, mean ± SEM, read-out: Luminescence intensity (%), Phenformin (100 μM) −
[9] = candidate 50 μM alone, no berberine, 24 h, vs negative control, mean ± SEM
[10] = candidate 50 μM alone, no linezolid, 24 h, vs negative control, mean ± SEM
[11] = candidate 50 μM alone, no phenformin, 24 h, vs negative control, mean ± SEM

| Compound | Lactic acid value vs. PC (%) [1, 3] [%] | Lactic acid-decreasing rate vs. PC (%) [1, 3] [%] | Lactic acid value vs. PC (%) [1, 4] [%] | Lactic acid-decreasing rate vs. PC (%) [1, 4] [%] | Lactic acid value vs. PC (%) [1, 5] [%] | Lactic acid-decreasing rate vs. PC (%) [1, 5] [%] | activity at 50 µM [1, 6] [%] | activity at 50 µM [1, 7] [%] | activity at 50 µM [1, 8] [%] | activity at 50 µM [2, 6] [%] | activity at 50 µM [2, 7] [%] | activity at 50 µM [2, 8] [%] | Lactic acid value vs. PC (%) [2, 3] [%] | Lactic acid-decreasing rate vs. PC (%) [2, 3] [%] | Lactic acid value vs. PC (%) [2, 4] [%] | Lactic acid-decreasing rate vs. PC (%) [2, 4] [%] | Lactic acid value vs. PC (%) [2, 5] [%] | Lactic acid-decreasing rate vs. PC (%) [2, 5] [%] | other results |
| --- | --- | --- | --- | --- | --- | --- | --- | --- | --- | --- | --- | --- | --- | --- | --- | --- | --- | --- | --- |
| CCSC(=O)N1CCCCCC1 [Molinate] | 105.78 | −5.78 | 105.88 | −5.88 | 91.13 | 8.87 | 110 ± 1.91 | 110 ± 1.91 | 110 ± 1.91 | 155 ± 3.38 | 155 ± 3.3 | 155 ± 3.38 | 105.04 | −5.04 | 125.68 | −25.68 | 99.16 | 0.84 |  |
| C#CCN(C)Cc1ccccc1 [Pargyline] | 101.89 | −1.89 | 98.24 | 1.76 | 95.59 | 4.41 | 95.68 ± 0.7 | 95.68 ± 0.7 | 95.68 ± 0.7 | 96.1 ± 1.32 | 96.1 ± 1.32 | 96.1 ± 1.32 | 101.56 | −1.56 | 88.70 | 11.30 | 100.88 | −0.88 |  |
| O=CC(=O)c1ccccc1 [Phenylglyoxal] | 90.18 | 9.82 | 82.74 | 17.26 | 89.61 | 10.39 | 97.3 ± 1.03 | 97.3 ± 1.03 | 97.3 ± 1.03 | 93.7 ± 1.34 | 93.7 ± 1.34 | 93.7 ± 1.34 | 90.06 | 9.94 | 88.89 | 11.11 | 96.12 | 3.88 |  |
| C=C(OP(=O)([O-])O)C(=O)O.O.[Na+] [Phospho(enol)pyruvic acid monosodium salt hydrate] | 90.07 | 9.93 | 92.96 | 7.04 | 94.91 | 5.09 |  |  |  |  |  |  | 93.05 | 6.95 | 89.30 | 10.70 | 91.45 | 8.55 | Luminescence intensity (%), Berberine (10 μM) − [1, 9]: 100.07 ± 1.80^ %; Luminescence intensity (%), Linezolid (200 μM) − [1, 10]: 100.07 ± 1.80^ %; Luminescence intensity (%), Phenformin (100 μM) − [1, 11]: 100.07 ± 1.80^ %; Luminescence intensity (%), Berberine (10 μM) − [2, 9]: 94.55 ± 1.37 %; Luminescence intensity (%), Linezolid (200 μM) − [2, 10]: 94.55 ± 1.37 %; Luminescence intensity (%), Phenformin (100 μM) − [2, 11]: 94.55 ± 1.37 % |
